# Results reported in patent US8058475B2, “Substituted cyclohexylmethyl compounds” (Gruenenthal GmbH, priority 2005, dated 2011).
# pKi: −log10 of the molar value.
# Target: human μ-opiate receptor (Homo sapiens, UniProt P35372)
# Assay: Affinity for the human μ-opiate receptor ([3H]-naloxone displacement, SPA, CHO-K1 membrane preparation)
# Format: binding
# Conditions: for inhibition at 1 µM: read-out: μ-Opioid receptor, % inhibition [1 μM]; for pKi: read-out: μ-Opioid receptor, Ki
# Sequence of human μ-opiate receptor (P35372 whole entry): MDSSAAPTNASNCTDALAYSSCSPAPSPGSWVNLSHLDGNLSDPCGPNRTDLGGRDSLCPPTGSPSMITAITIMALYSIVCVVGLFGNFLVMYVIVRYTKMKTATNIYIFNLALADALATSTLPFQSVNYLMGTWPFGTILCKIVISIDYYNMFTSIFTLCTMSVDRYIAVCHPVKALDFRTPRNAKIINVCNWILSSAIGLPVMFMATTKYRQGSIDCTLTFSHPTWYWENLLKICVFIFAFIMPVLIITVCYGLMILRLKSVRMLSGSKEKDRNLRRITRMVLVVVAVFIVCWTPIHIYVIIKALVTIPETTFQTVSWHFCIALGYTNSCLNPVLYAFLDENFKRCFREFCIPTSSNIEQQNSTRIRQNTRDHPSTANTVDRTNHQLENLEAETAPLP
Structure (SMILES),inhibition at 1 µM,pKi
"CN(C)C(c1cccs1)C1CCC(CCNC(=O)c2ccccc2F)CC1 (stereo not shown) [compound 428, N-{2-[4-(dimethylamino-thiophen-2-yl-methyl)-cyclohexyl]-ethyl}-2-fluoro-benzamide]",97%,8.27
"Cc1cccc(C(=O)NCCC2CCC(C(c3ccc(F)cc3)N(C)C)CC2)c1 (stereo not shown) [compound 429, N-(2-{4-[dimethylamino-(4-fluoro-phenyl)-methyl]-cyclohexyl}-ethyl)-3-methyl-benzamide]",88%,7.26
"Cc1cccc(C(=O)NCCC2CCC(C(c3cccs3)N(C)C)CC2)c1 (stereo not shown) [compound 430, N-{2-[4-(dimethylamino-thiophen-2-yl-methyl)-cyclohexyl]-ethyl}-3-methyl-benzamide]",101%,8.36
"CN(C)C(c1cccs1)C1CCC(CCNC(=O)c2c(Cl)cccc2Cl)CC1 (stereo not shown) [compound 431, 2,6-dichloro-N-{2-[4-(dimethylamino-thiophen-2-yl-methyl)-cyclohexyl]-ethyl}-benzamide]",93%,7.59
"COc1ccccc1C(=O)NCCC1CCC(C(c2ccc(F)cc2)N(C)C)CC1 (stereo not shown) [compound 432, N-(2-{4-[dimethylamino-(4-fluoro-phenyl)-methyl]-cyclohexyl}-ethyl)-2-methoxy-benzamide]",95%,7.74
"CN(C)C(c1ccccc1)C1CCC(CCNC(=O)c2cc(F)cc(F)c2)CC1 (stereo not shown) [compound 433, N-{2-[4-(dimethylamino-phenyl-methyl)-cyclohexyl]-ethyl}-3,5-difluoro-benzamide]",89%,8.42
"CN(C)C(c1ccc(Cl)cc1)C1CCC(CCNC(=O)c2cc(F)cc(F)c2)CC1 (stereo not shown) [compound 434, N-(2-{4-[(4-chloro-phenyl)-dimethylamino-methyl]-cyclohexyl}-ethyl)-3,5-difluoro-benzamide]",85%,7.62
"CN(C)C(c1cccc(F)c1)C1CCC(CCNC(=O)c2cc(F)cc(F)c2)CC1 (stereo not shown) [compound 435, N-(2-{4-[dimethylamino-(3-fluoro-phenyl)-methyl]-cyclohexyl}-ethyl)-3,5-difluoro-benzamide]",99%,7.85
"CN(C)C(c1ccc(Cl)cc1)C1CCC(CCNC(=O)c2ccc(F)cc2F)CC1 (stereo not shown) [compound 436, N-(2-{4-[(4-chloro-phenyl)-dimethylamino-methyl]-cyclohexyl}-ethyl)-2,4-difluoro-benzamide]",91%,7.54
"CN(C)C(c1ccc(Cl)cc1)C1CCC(CCNC(=O)c2cc(F)c(Cl)cc2Cl)CC1 (stereo not shown) [compound 437, 2,4-dichloro-N-(2-{4-[(4-chloro-phenyl)-dimethylamino-methyl]-cyclohexyl}-ethyl)-5-fluoro-benzamide]",80%,7.00
"CN(C)C(c1cccs1)C1CCC(CCNC(=O)c2cc(F)c(Cl)cc2Cl)CC1 (stereo not shown) [compound 440, 2,4-dichloro-N-{2-[4-(dimethylamino-thiophen-2-yl-methyl)-cyclohexyl]-ethyl}-5-fluoro-benzamide]",95%,7.82
"CN(C)C(c1ccc(Cl)cc1)C1CCC(CCNC(=O)c2cccnc2Cl)CC1 (stereo not shown) [compound 441, 2-chloro-N-(2-{4-[(4-chloro-phenyl)-dimethylamino-methyl]-cyclohexyl}-ethyl)-nicotinamide]",83%,6.70
"CN(C)C(c1ccc(F)cc1)C1CCC(CCNC(=O)c2ccc3ccccc3c2)CC1 (stereo not shown) [compound 442, naphthalene-2-carboxylic acid (2-{4-[dimethylamino-(4-fluoro-phenyl)-methyl]-cyclohexyl}-ethyl)-amide]",86%,6.96
"CCCc1ccc(C(=O)NCCC2CCC(C(c3cccs3)N(C)C)CC2)cc1 (stereo not shown) [compound 443, N-{2-[4-(dimethylamino-thiophen-2-yl-methyl)-cyclohexyl]-ethyl}-4-propyl-benzamide]",96%,7.40
"CN(C)C(c1ccccc1)C1CCC(CCNC(=O)c2ccc(F)c(F)c2)CC1 (stereo not shown) [compound 444, N-{2-[4-(dimethylamino-phenyl-methyl)-cyclohexyl]-ethyl}-3,4-difluoro-benzamide]",101%,7.96
"CN(C)C(c1ccc(Cl)cc1)C1CCC(CCNC(=O)c2ccc(F)c(F)c2)CC1 (stereo not shown) [compound 445, N-(2-{4-[(4-chloro-phenyl)-dimethylamino-methyl]-cyclohexyl}-ethyl)-3,4-difluoro-benzamide]",86%,7.16
"CN(C)C(c1cccs1)C1CCC(CCNC(=O)c2ccc(F)c(F)c2)CC1 (stereo not shown) [compound 446, N-{2-[4-(dimethylamino-thiophen-2-yl-methyl)-cyclohexyl]-ethyl}-3,4-difluoro-benzamide]",99%,8.19
"COc1cccc(C(=O)NCCC2CCC(C(c3ccc(F)cc3)N(C)C)CC2)c1 (stereo not shown) [compound 447, N-(2-{4-[dimethylamino-(4-fluoro-phenyl)-methyl]-cyclohexyl}-ethyl)-3-methoxy-benzamide]",83%,6.89
"CN(C)C(c1ccccc1)C1CCC(CCNC(=O)C(c2ccccc2)c2ccccc2)CC1 (stereo not shown) [compound 448, N-{2-[4-(dimethylamino-phenyl-methyl)-cyclohexyl]-ethyl}-2,2-diphenyl-acetamide]",95%,7.48
"CN(C)C(c1ccccc1)C1CCC(CCNC(=O)C2(c3ccc(Cl)cc3)CCCC2)CC1 (stereo not shown) [compound 449, 1-(4-chloro-phenyl)-cyclopentane-carboxylic acid {2-[4-(dimethylamino-phenyl-methyl)-cyclohexyl]-ethyl}-amide]",88%,7.44
"CN(C)C(c1ccccc1)C1CCC(CCNC(=O)COCc2ccccc2)CC1 (stereo not shown) [compound 450, 2-benzyloxy-N-{2-[4-(dimethylamino-phenyl-methyl)-cyclohexyl]-ethyl}-acetamide]",89%,7.09
"CN(C)C(c1ccccc1)C1CCC(CCNC(=O)Cc2ccccc2)CC1 (stereo not shown) [compound 451, N-{2-[4-(dimethylamino-phenyl-methyl)-cyclohexyl]-ethyl}-2-phenyl-acetamide]",92%,7.62
"CN(C)C(c1ccccc1)C1CCC(CCNC(=O)c2cccs2)CC1 (stereo not shown) [compound 452, thiophene-2-carboxylic acid {2-[4-(dimethylamino-phenyl-methyl)-cyclohexyl]-ethyl}-amide]",99%,7.92
"COc1cccc(CC(=O)NCCC2CCC(C(c3cccc(F)c3)N(C)C)CC2)c1 (stereo not shown) [compound 453, N-(2-{4-[dimethylamino-(3-fluoro-phenyl)-methyl]-cyclohexyl}-ethyl)-2-(3-methoxy-phenyl)-acetamide]",83%,7.37
"COc1cccc(CC(=O)NCCC2CCC(C(c3cccs3)N(C)C)CC2)c1 (stereo not shown) [compound 454, N-{2-[4-(dimethylamino-thiophen-2-yl-methyl)-cyclohexyl]-ethyl}-2-(3-methoxy-phenyl)-acetamide]",87%,7.29
"CCC(C(=O)NCCC1CCC(C(c2ccc(Cl)cc2)N(C)C)CC1)c1ccccc1 (stereo not shown) [compound 455, N-(2-{4-[(4-chloro-phenyl)-dimethylamino-methyl]-cyclohexyl}-ethyl)-2-phenyl-butyramide]",81%,7.16
